Measurements: a melting point compilation (Tetko et al.)

melting point [°C] | Structure (SMILES)
222 | CC(C)(C)c1nnc(NS(=O)(=O)c2ccc(N)cc2)s1
53 to 56 | Cc1ccc(C#N)n1C
73 | CCOC(=O)C=Cc1ccc(N)cc1
73 | Cc1cc(N)c2ncccc2c1
102 | NC(=O)COc1ccccc1
42 | N#CCc1c(F)cccc1Cl
144 to 146 | O=C(O)C1CC(=O)N(Cc2cccs2)C1 (stereo unspecified)
116 | O=C(c1ccccc1)c1nn(-c2ccccc2)c(-c2ccc([N+](=O)[O-])cc2)c1S(=O)(=O)c1ccccc1
140 | Cc1ccc([C@H]2O[C@@H](c3ccc(C)cc3)[C@H](C)C(=O)[C@@H]2C)cc1
213 to 216 | NNC(=O)CSc1ccnc2cc(Cl)ccc12
260 | Cc1cc([N+](=O)[O-])cnc1N
208 | CCOC(=O)C1=C(C)NC(=O)NC1c1ccc([N+](=O)[O-])cc1 (stereo unspecified)
161 to 165 | Cc1ccc(C=C(Oc2ccccc2)c2nc3ccccc3s2)cc1
82 | COC(=O)c1ccc(C(=O)OC)c(F)c1
188 | NS(=O)(=O)c1ccccc1OC(F)(F)F
196 to 197 | N#Cc1cc(-c2ccccc2)oc1N
315 | Cc1ccc(NC(=O)C=Cc2ccc(C=CC(=O)Nc3ccc(C)cc3)cc2)cc1
59 to 64 | c1cncc(Cn2cccc2)c1
121 to 124 | COC(=O)c1ccccc1SCC#N
196 | COc1cccc(C2C(C(=O)OC(C)C)=C(C)NC(C)=C2C(=O)OC(C)C)c1O
180 | CCCCC1=NC2(CCCC2)C(=O)N1Cc1ccc(-c2ccccc2-c2nnn[nH]2)cc1
105 | Clc1ncnc2sccc12
31 | CCCCCCCCC(=O)CCCCCC
120 | Cc1cc(C)n(C(=O)CC#N)n1
72 to 74 | CCOC(=O)CN(C)C(=O)c1nn(-c2ccccc2)nc1C
90 | O=C(Oc1ccccn1)Oc1ccccn1

melting point [°C] | Structure (SMILES)
43.8 | Clc1ccc2ncccc2c1
82.5 | OC1CCC(Cl)CC1 (stereo unspecified)
245 | CN1C(=O)C(=NNC(N)=S)c2ccccc21
142 to 143 | Cc1ccccc1C(N)=S
32 | O=C(Cl)c1ccc(Cl)c(Cl)c1
177 to 181 | COc1ccc(-c2ccc(OC)cc2)cc1
58 | c1ccc(SSc2ccccn2)nc1
36 | Cc1cc(C)c(Br)c(C)c1N
41 to 43 | Nc1c(F)cc(Cl)cc1Br
246 | N#C/C(=N\Nc1ccc(Cl)cc1Cl)c1nc(-c2ccc(Cl)cc2)cs1
40 | Clc1cc(Br)ccc1Br
94 | Cc1cc(C#N)ccc1N
147 | O=C(O)CN1C(=O)CSC1=S
187 | FC(F)(F)c1nn(CN2CCN(Cn3nc(C(F)(F)F)n(N=Cc4cccs4)c3=S)CC2)c(=S)n1N=Cc1cccs1
55 | N#Cc1ccccc1I
61 | N#CCC(=O)c1cccc(C(F)(F)F)c1
105 | Clc1ccc(Cl)c(-c2cc(Cl)c(Cl)c(Cl)c2)c1
78 | Nc1ccccc1COc1ccccc1
284 | N=C1NC(=O)C(=NNc2ccc(Br)cc2)S1
87 | CC1=Cc2ccccc2C1O (stereo unspecified)
212 to 216 | CC(=O)Nc1cc(F)ccc1C(=O)O
-38 | CCCCCCCCC(=O)OCCCC
153 | CC(C)(C)OC(=O)N[C@H](Cc1ccc(C#N)cc1)C(=O)O
71.5 | CC(/N=N/c1cc(Cl)cc(Cl)c1O)=C(\Cl)C(=O)OCCOCCOCCCl
250 | C=C1C(=O)C23C4CC5C(C)(C)CCC(=O)C5(C(=O)O4)C2C(=O)CC1C3O (stereo unspecified)
30.5 | CCOC(=O)c1cc2ccccc2o1

melting point [°C] | Structure (SMILES)
104 | COC(=O)C1(S(=O)(=O)c2ccc(Br)cc2)CCCC1
107 to 109 | Cc1ccc(C(N)=O)cc1C
22.8 | CCCCCCCC(=O)c1ccccc1
225 to 227 | Cc1ccc(-c2onc(C(=O)c3ccc([N+](=O)[O-])cc3)c2S(=O)(=O)c2ccccc2)cc1
72 | COc1ccccc1NC(=O)c1cncc(Cl)n1
66 to 68 | Nc1c(Cl)cc(C(F)(F)F)cc1[N+](=O)[O-]
101 to 103 | CCOC(=O)c1nc(-c2cncc(Br)c2)no1
77 | CN(C)c1ccc(O)cc1
117 | CC(C)c1cc(C(=O)O)c(O)c(C(C)C)c1
50 | Cc1nc(CO)cs1
108 to 109 | CC1(C)OC[C@H](CC(N)=O)O1
187 to 188 | CCOC(=O)c1c(NC(=O)CN2CCN(c3ccccc3)CC2)sc2c1CCCC2
214 to 215 | C(=C1c2ccccc2C2C1OC1/C(=C\c3ccccc3)c3ccccc3C12)c1ccccc1 (stereo unspecified)
226 | Cc1cc(N=Nc2ccc(N=Nc3ccccc3)cc2)c(C(C)C)cc1N=Nc1ccc(N=Nc2ccccc2)cc1
340 | O=C(C=Nc1ccccc1)c1cc(C(=O)C=Nc2ccccc2)cc(C(=O)C=Nc2ccccc2)c1
118 to 120 | COC(=O)c1ccc2snnc2c1
163 to 166 | O=C(Oc1ccc2ccccc2c1-c1c(OC(=O)c2ccccc2)ccc2ccccc12)c1ccccc1
146 to 148 | OCc1cc(O)ccc1I
205 | N#CC1=C(N)N2C(=C(C#N)C1c1ccccc1)Sc1ccccc12 (stereo unspecified)
76 | Cc1ncc([N+](=O)[O-])n1CC(C)O (stereo unspecified)
210 | Clc1cc2oc3ccc(Cl)c(Cl)c3c2cc1Cl
256 to 258 | CCOC(=O)c1c[nH]c(=S)nc1N
273 to 274 | O=S(=O)(O)CC(O)CN1CCOCC1 (stereo unspecified)
250 | O=C(O)c1cc(-c2ccccc2)n[nH]1
216 | NCCCC1C=NNC1=O (stereo unspecified)
185 | N#Cc1cnc(N)s1

Structure (SMILES) | melting point [°C]
CC(C)(C)N(NC(=O)c1ccccc1)C(=O)c1ccccc1C(F)(F)F | 172
NCc1cc(=O)[nH]o1 | 175
BrCC(Br)(Br)Br | 0
CCC(C)(O)CNC1C2CCC(C)(C1O)C2(C)C (stereo unspecified) | 119
N#CCc1c[nH]c2ccccc12 | 36
COc1c(Br)cc(Br)cc1Br | 88
CN1CCC(N(Cc2cccs2)c2ccccc2)CC1 | 95
COC(=O)COc1ccc(Cl)cc1Cl | 119
CN1CCN(Cc2ccc(C#N)cc2)CC1 | 69 to 71
Cc1cccc(C)c1N(Cn1cccn1)C(=O)CCl | 85
O=C1NC(=O)C(=Cc2ccc(-c3cccc([N+](=O)[O-])c3)o2)C(=O)N1 | 280
O=c1[nH]ncc(Cl)c1Cl | 202
O=[N+]([O-])c1ccc(Nc2ccccc2)cc1 | 135
